Experimental data taken from US8911705B2, “Diagnostic substance and method for the analysis of metabolism processes in the brain” (Leibniz-Institut fuer Neurobiologie Stiftung des …, priority 2005, dated 2014).

Assays:
[1] = test system: brain of rat after focal cerebral ischemia
Source text: Thallium is a potassium tracer and can detect changes in potassium metabolism, as occur, e.g., in brain infarcts, brain tumors, or degenerative diseases.
Shown are frontal sections in the plane of the anterior commissure (A, D) and images of the same sections (B, E).
The thallium is taken up essentially by the sodium-potassium pump and transport systems regulated by it and is thus energy-dependent. […] Scale bar in A: 500 μm, in B: 50 μm, in C: 25 μm, in D: 10 μm, in E: 25 μm and in F: 100 μm.

brain = details: cited from earlier work
experimental animals = details: high thallium acetate doses needed for the method; animals sacrificed 15 minutes after administration; cited from earlier work

Compound | staining intensity (thallium) in infarct core ([1]; 15 minutes after focal cerebral ischemia (hyperacute stage), infarct core) | staining intensity (thallium) in zone surrounding infarct core ([1]; 15 minutes after focal cerebral ischemia, zone surrounding core vs contralateral side) | differences in thallium distribution ipsilateral and contralateral to the occluded vessel ([1]; 7 days after focal cerebral ischemia (late time point)) | thallium staining of astrocytes in the infarct core ([1]; hyperacute stage of cerebral ischemia, astrocytes) | thallium detection in neurons of the infarct core ([1]; hyperacute stage of cerebral ischemia, neurons) | cerebral uptake (brain) | decomposition in the brain (brain) | toxicity of the thallium dose used (experimental animals) | retention in the brain (brain)
CCN(CC)C(=S)[S][201Tl] [Tl-DDC, thallium-201 diethyldithiocarbamate] | clearly reduced staining intensity | clearly lower than in the undamaged contralateral side | less pronounced | intensively stained | cannot be detected | good cerebral uptake | decomposes spontaneously in the brain | – | –
CC(=O)[O-].[Tl+] [thallium acetate] | – | – | – | – | – | – | – | deadly | –
technetium-99m-diethyldithiocarbamate [^99 mTc-DDC] | – | – | – | – | – | good cerebral uptake | essentially lower rate of decomposition in the brain | – | retained there to a lesser extent
